Test results published in ChEMBL document CHEMBL3808317, “Straightforward conversion of decoquinate into inexpensive tractable new derivatives with significant antimalarial activities” (Bioorg Med Chem Lett, 2016).
Values after ≈ are worked out from the molar mass of the structure shown. Active and inactive are the calls of the source. The calls are words filed in the database; no cut-off is given here.

Key:
Plasmodium falciparum [1] = assay: Antimalarial activity against multidrug resistant Plasmodium falciparum K1 infected in human erythrocytes assessed as inhibition of parasite proliferation after 96 hrs by SYBR Green I fluorescence based assay; assay type: functional, organism-based; settings: K1, 96 h
[2] = Resistance index, ratio of IC50 for multi-drug-resistant Plasmodium falciparum W2 infected in human erythrocytes to IC50 for chloroquine-sensitive asexual Plasmodium falciparum NF54 infected in human erythrocytes; assay type: functional
[3] = Cytotoxicity against human WI38 cells assessed as growth inhibition after 48 hrs by sulforhodamine B assay; assay type: cell-based; settings: WI-38, 48 h
[4] = Resistance index, ratio of IC50 for multi-drug-resistant Plasmodium falciparum K1 infected in human erythrocytes to IC50 for chloroquine-sensitive asexual Plasmodium falciparum NF54 infected in human erythrocytes; assay type: functional
Plasmodium falciparum [5] = assay: Antimalarial activity against chloroquine-sensitive asexual Plasmodium falciparum NF54 infected in human erythrocytes assessed as inhibition of parasite proliferation at 100 to 500 nM after 96 hrs by SYBR Green I fluorescence based assay; assay type: functional, organism-based
Plasmodium falciparum [6] = assay: Antimalarial activity against chloroquine-sensitive asexual Plasmodium falciparum NF54 infected in human erythrocytes assessed as inhibition of parasite proliferation at 5 uM after 96 hrs by SYBR Green I fluorescence based assay relative to control; assay type: functional; settings: NF54, 96 h
[7] = Selectivity index, ratio of IC50 for human WI38 cells to IC50 chloroquine-sensitive asexual Plasmodium falciparum NF54 infected in human erythrocytes; assay type: toxicity, cell-based, WI-38; settings: read-out: Ratio IC50
Plasmodium falciparum [8] = assay: Antimalarial activity against chloroquine-sensitive asexual Plasmodium falciparum NF54 infected in human erythrocytes assessed as inhibition of parasite proliferation at 1 uM after 96 hrs by SYBR Green I fluorescence based assay relative to control; assay type: functional; settings: NF54, 96 h
Plasmodium falciparum [9] = assay: Antimalarial activity against chloroquine-sensitive asexual Plasmodium falciparum NF54 infected in human erythrocytes assessed as inhibition of parasite proliferation after 96 hrs by SYBR Green I fluorescence based assay; assay type: functional, organism-based; settings: NF54, 96 h
Plasmodium falciparum [10] = assay: Antimalarial activity against multidrug resistant Plasmodium falciparum W2 infected in human erythrocytes assessed as inhibition of parasite proliferation after 96 hrs by SYBR Green I fluorescence based assay; assay type: functional, organism-based; settings: W2, 96 h
[11] = Solubility of compound in water; assay type: physicochemical
[12] = Acidic dissociation constant, pKa of compound; assay type: physicochemical
[13] = Lipophilicity, log P of compound; assay type: physicochemical; settings: octanol/water

## CCCCCCCCCCOc1cc2c(=O)c(C(=O)OCC)cn(C(=O)CC)c2cc1OCC
Plasmodium falciparum [1]
  IC50: 48.9 nM
[2]
  Ratio IC50: 0.8
[3]
  IC50: > 100000 nM
[4]
  Ratio IC50: 3.2
Plasmodium falciparum [5]
  inhibition: Active
Plasmodium falciparum [6]
  inhibition at 5 µM: > 50%
[7]
  selectivity ratio: > 6490
Plasmodium falciparum [8]
  inhibition at 1 µM: > 70%
Plasmodium falciparum [9]
  IC50: 15.4 nM
Plasmodium falciparum [10]
  IC50: 11.5 nM

## CCCCCCCCCCOc1cc2c(=O)c(C(=O)NCc3ccccc3F)c[nH]c2cc1OCC
Plasmodium falciparum [6]
  inhibition at 5 µM: > 50%
Plasmodium falciparum [8]
  inhibition at 1 µM: > 70%

## CCCCCCCCCCOc1cc2c(=O)c(C(=O)NCc3ccc(F)cc3)c[nH]c2cc1OCC
Plasmodium falciparum [1]
  IC50: 63.1 nM
[2]
  Ratio IC50: 0.2
[3]
  IC50: > 100000 nM
[4]
  Ratio IC50: 1.9
Plasmodium falciparum [5]
  inhibition: Active
Plasmodium falciparum [6]
  inhibition at 5 µM: > 50%
[7]
  selectivity ratio: > 3020
Plasmodium falciparum [8]
  inhibition at 1 µM: > 70%
Plasmodium falciparum [9]
  IC50: 33.1 nM
Plasmodium falciparum [10]
  IC50: 8.6 nM

## CCCCCCCCCCOc1cc2c(=O)c(C(=O)NCc3ccco3)c[nH]c2cc1OCC
Plasmodium falciparum [6]
  inhibition at 5 µM: > 50%
Plasmodium falciparum [8]
  inhibition at 1 µM: > 70%

## CCCCCCCCCCOc1cc2c(=O)c(C(=O)NCCCn3ccnc3)c[nH]c2cc1OCC
Plasmodium falciparum [6]
  inhibition at 5 µM: > 50%
Plasmodium falciparum [8]
  inhibition at 1 µM: > 70%

## C[C@H]1[C@H](OC(=O)CCC(=O)O)O[C@@H]2O[C@@]3(C)CC[C@H]4[C@H](C)CC[C@@H]1[C@@]24OO3 [ARTESUNATE]
Plasmodium falciparum [1]
  IC50: 8.97 nM
[2]
  Ratio IC50: 0.8
[3]
  IC50: > 100000 nM
[4]
  Ratio IC50: 1.4
[7]
  selectivity ratio: > 12700
Plasmodium falciparum [9]
  IC50: 7.88 nM
Plasmodium falciparum [10]
  IC50: 6.77 nM

## CCCCCCCCCCOc1cc2c(=O)c(C(=O)OCC)cn(C(C)=O)c2cc1OCC
Plasmodium falciparum [1]
  IC50: 12 nM
[2]
  Ratio IC50: 1.7
[3]
  IC50: > 100000 nM
[4]
  Ratio IC50: 2.5
Plasmodium falciparum [5]
  inhibition: Active
Plasmodium falciparum [6]
  inhibition at 5 µM: > 50%
[7]
  selectivity ratio: > 20400
Plasmodium falciparum [8]
  inhibition at 1 µM: > 70%
Plasmodium falciparum [9]
  IC50: 4.9 nM
Plasmodium falciparum [10]
  IC50: 8.5 nM

## CO[C@H]1O[C@@H]2O[C@@]3(C)CC[C@H]4[C@H](C)CC[C@@H]([C@H]1C)[C@@]24OO3 [ARTEMETHER]
Plasmodium falciparum [1]
  IC50: 7.26 nM
[2]
  Ratio IC50: 0.8
[4]
  Ratio IC50: 1.3
Plasmodium falciparum [9]
  IC50: 5.77 nM
Plasmodium falciparum [10]
  IC50: 4.5 nM

## CCCCCCCCCCOc1cc2c(=O)c(C(=O)NCCN(C)C)c[nH]c2cc1OCC
Plasmodium falciparum [6]
  inhibition at 5 µM: > 50%
Plasmodium falciparum [8]
  inhibition at 1 µM: > 70%

## CCCCCCCCCCOc1cc2c(=O)c(C(=O)N3CCOCC3)cn(S(=O)(=O)C3CC3)c2cc1OCC
Plasmodium falciparum [6]
  inhibition at 5 µM: > 50%
Plasmodium falciparum [8]
  inhibition at 1 µM: > 70%

## CCCCCCCCCCOc1cc2c(=O)c(C(=O)N3CCOCC3)cn(C(C)=O)c2cc1OCC
Plasmodium falciparum [6]
  inhibition at 5 µM: > 50%
Plasmodium falciparum [8]
  inhibition at 1 µM: > 70%

## CCCCCCCCCCOc1cc2c(=O)c(C(=O)OCC)cn(S(C)(=O)=O)c2cc1OCC
Plasmodium falciparum [6]
  inhibition at 5 µM: > 50%
Plasmodium falciparum [8]
  inhibition at 1 µM: > 70%

## CCCCCCCCCCOc1cc2c(=O)c(C(=O)NCCOC)c[nH]c2cc1OCC
Plasmodium falciparum [6]
  inhibition at 5 µM: > 50%
Plasmodium falciparum [8]
  inhibition at 1 µM: > 70%

## CCCCCCCCCCOc1cc2c(=O)c(C(=O)NCCOCCO)c[nH]c2cc1OCC
Plasmodium falciparum [1]
  IC50: 64.8 nM
[2]
  Ratio IC50: 0.5
[3]
  IC50: 43900 nM
[4]
  Ratio IC50: 1.6
Plasmodium falciparum [5]
  inhibition: Active
Plasmodium falciparum [6]
  inhibition at 5 µM: > 50%
[7]
  selectivity ratio: 1090
Plasmodium falciparum [8]
  inhibition at 1 µM: > 70%
Plasmodium falciparum [9]
  IC50: 40.4 nM
Plasmodium falciparum [10]
  IC50: 18.5 nM

## CCCCCCCCCCOc1cc2c(O)c(C(=O)OCC)cnc2cc1OCC [DECOQUINATE]
[11]
  solubility: 0.06 µg/mL (≈ 0.144 µM)
Plasmodium falciparum [1]
  IC50: 64.9 nM
[2]
  Ratio IC50: 0.6
[3]
  IC50: > 100000 nM
[4]
  Ratio IC50: 2.4
Plasmodium falciparum [5]
  inhibition: Active
Plasmodium falciparum [6]
  inhibition at 5 µM: > 50%
[7]
  selectivity ratio: > 3760
[12]
  pKa: 9.81
Plasmodium falciparum [8]
  inhibition at 1 µM: > 70%
Plasmodium falciparum [9]
  IC50: 26.6 nM
[13]
  logP: 8.19
Plasmodium falciparum [10]
  IC50: 15.4 nM

## CC[C@H]1CN2CCc3cc(OC)c(OC)cc3[C@@H]2C[C@@H]1C[C@H]1NCCc2cc(OC)c(OC)cc21 [EMETINE]
[3]
  IC50: 50 nM

## CCCCCCCCCCOc1cc2c(=O)c(C(=O)OCC)cn(C(=O)N3CCCCC3)c2cc1OCC
Plasmodium falciparum [1]
  IC50: 89.1 nM
[2]
  Ratio IC50: 1.5
[3]
  IC50: 8500 nM
[4]
  Ratio IC50: 4.9
Plasmodium falciparum [5]
  inhibition: Active
Plasmodium falciparum [6]
  inhibition at 5 µM: > 50%
[7]
  selectivity ratio: 465
Plasmodium falciparum [8]
  inhibition at 1 µM: > 70%
Plasmodium falciparum [9]
  IC50: 18.3 nM
Plasmodium falciparum [10]
  IC50: 28.2 nM

## CCCCCCCCCCOc1cc2c(=O)c(C(=O)OCC)cn(S(=O)(=O)C3CC3)c2cc1OCC
Plasmodium falciparum [6]
  inhibition at 5 µM: > 50%
Plasmodium falciparum [8]
  inhibition at 1 µM: > 70%

## CCCCCCCCCCOc1cc2c(=O)c(C(=O)OCC)cn(C(=O)N(C)C)c2cc1OCC
Plasmodium falciparum [6]
  inhibition at 5 µM: > 50%
Plasmodium falciparum [8]
  inhibition at 1 µM: > 70%
